Assay results as given in patent US6514997B2, “Antipicornaviral compounds and compositions, their pharmaceutical uses, and materials for their synthesis” (Agouron Pharmaceuticals, Inc., priority 1999, dated 2003).
Where two headings read alike, the source gives them in different places.

Experiments:
HRV-14 = experiment: Antirhinoviral H1-HeLa cell culture assay (XTT cell protection, EC50), HRV-14; type: cell-based, human rhinovirus (HRV) serotype-14 in H1-HeLa cells
Method in brief: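 XTT dye reduction (450/650 nm) measured survival of H1-HeLa cells two days after HRV-14 infection at m.o.i. 0.13 in the presence of compound, giving EC50. The therapeutic index is CC50 divided by EC50.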

[1] = tested on: strains of human rhinovirus (HRV); experiment: Antirhinoviral H1-HeLa cell culture assay (XTT cell protection, EC50), other HRV strains; type: cell-based, human rhinovirus in H1-HeLa cells; settings: read-out: EC50
Method in brief: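 Protection of H1-HeLa cells from rhinovirus was scored two days post-infection via XTT dye reduction read at 450/650 nm, alongside mock-infected cells for toxicity. CC50/EC50 gives the therapeutic index.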

H1-HeLa cells = experiment: Cytotoxicity (CC50) in mock-infected H1-HeLa cells, XTT dye reduction; type: cell-based, human
Method in brief: (§1)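 XTT dye reduction (formazan, 450/650 nm) in H1-HeLa cells, mock-infected, gave CC50.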

[2] = as above; type: cell-based, human; settings: human; for CC50 at 1 day: CVB3
Method in brief: as §1

[3] = target: T1, Recombinant rhinovirus 3C protease, serotype 14 (Human rhinovirus 14, UniProt P03303); experiment: Inhibition of rhinovirus 3C protease (FRET assay, kobs/[I]), serotype 14; type: biochemical; settings: pH 7.6; HRV-14 3C protease; read-out: kobs/[I] (3C protease inhibition activity)
T1 construct: Recombinant rhinovirus 3C proteases; made in house
T1 sequence (P03303 1538-1719): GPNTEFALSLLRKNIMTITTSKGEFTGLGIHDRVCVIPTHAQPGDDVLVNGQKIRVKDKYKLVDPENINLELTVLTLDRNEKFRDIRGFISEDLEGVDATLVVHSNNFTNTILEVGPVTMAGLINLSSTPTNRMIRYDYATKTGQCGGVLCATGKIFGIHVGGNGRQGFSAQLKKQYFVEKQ
Method in brief: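 kobs/[I] values came from progress curves of reactions started by adding 50-100 nM protease to buffer (50 mM tris pH 7.6, 1 mM EDTA, 2% DMSO) containing compound and ~1 μM quenched DABCYL-EDANS substrate. Rising EDANS fluorescence reported cleavage.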

[4] = tested on: Coxsackievirus type A-21 (CAV-21); experiment: Anticoxsackieviral cell culture assay (XTT, EC50), CAV-21; type: cell-based, coxsackievirus A-21 in H1-HeLa cells
Experimental: (§2) Anticoxsackieviral Cell Culture Assay:
(§3) Coxsackievirus types A-21 (CAV-21) and B3 (CVB3) were purchased from American Type Culture Collection (ATCC, Rockville, Md.). Virus stocks were propagated and antiviral assays were performed in H1-HeLa cells (ATCC). Cells were grown in minimal essential medium with 10% fetal bovine serum (Life Technologies, Gaithersburg, Md.). The ability of the compounds of this invention to protect cells against either CAV-21 or CVB3 infection was measured by the XTT dye reduction method. This method is described in Weislow et al., J. Natl. Cancer Inst. (1989), vol. 81, 577-586. H1-HeLa cells were infected with CAV-21 or CVB3 at a multiplicity of infection (m.o.i.) of 0.025 or 0.075, respectively, or mock-infected with medium only. H1-HeLa cells were plated at 4×10^4 cells per well in a 96-well plate and incubated with appropriate concentrations of the test compound. One day (CVB3) or two days (CAV-21) later, XTT/PMS was added to test plates and the amount of formazan produced was quantified spectrophotometrically at 450/650 nm. […] The therapeutic index (TI) was calculated by dividing the CC50 by the EC50.

MRC-5 cells = experiment: Cytotoxicity (CC50) in uninfected MRC-5 cells, XTT dye reduction; type: cell-based, human; settings: ENT-70 row
Experimental: (§4) Echovirus type 11 (ECHO 11) was purchased from ATCC (Rockville, Md.). Virus stocks were propagated and antiviral assays were performed in MRC-5 cells (ATCC). Cells were grown in minimal essential medium with 10% fetal bovine serum (Life Technologies, Gaithersburg, Md.). The ability of the compounds of this invention to protect cells against ECHO 11 infection was measured by the XTT dye reduction method (Weislow et al., J. Natl. Cancer Inst. (1989), vol. 81, 577-586). MRC-5 cells were infected with ECHO 11 at an m.o.i. of 0.003 or 0.004, respectively, or mock-infected with medium only. Infected or uninfected cells were added at 1×10^4 cells per well and incubated with appropriate concentrations of compound. Four days later, XTT/PMS was added to test plates, and the amount of formazan produced was quantified spectrophotometrically at 450/650 nm. […] The therapeutic index (TI) was calculated by dividing the CC50 by the EC50. Activity of the compounds against enterovirus type 70 (EV 70) may be measured by the same assay as described above in this section. Enterovirus type 70 (EV 70) may be obtained from the American Type Culture Collection ATCC (Rockville, Md.).

[5] = as above; type: cell-based, human; settings: human, uninfected (mock-infected) MRC-5 cells; ECHO-11 (EV-11) row
Experimental: as §4

[6] = tested on: enterovirus type 70 (EV 70); experiment: Anti-enteroviral cell culture assay (XTT, EC50), EV 70; type: cell-based, enterovirus 70 in MRC-5 cells; settings: Enterovirus D, MRC5; ENT-70, MRC-5 cells
Experimental: (§5) Anti-Echoviral and Anti-Enteroviral Cell Culture Assays
as §4

[7] = tested on: Coxsackievirus type B3 (CVB3); experiment: Anticoxsackieviral cell culture assay (XTT, EC50), CVB3; type: cell-based, coxsackievirus B3 in H1-HeLa cells
Experimental: as §2, §3

[8] = tested on: Echovirus type 11 (ECHO 11); experiment: Anti-echoviral cell culture assay (XTT, EC50), ECHO 11; type: cell-based, echovirus 11 in MRC-5 cells; settings: Enterovirus B, MRC5
Experimental: as §5, §4

[9] = Human rhinovirus sp., HRV3, H1-HeLa, HRV-3
[10] = Human rhinovirus sp., HRV9, H1-HeLa, HRV-9
[11] = Human rhinovirus sp., HRV10, H1-HeLa, HRV-10
[12] = Human rhinovirus sp., HRV13, H1-HeLa, HRV-13
[13] = Human rhinovirus sp., HRV16, H1-HeLa, HRV-16
[14] = Human rhinovirus sp., HRV25, H1-HeLa, HRV-25
[15] = Human rhinovirus sp., HRV39, H1-HeLa, HRV-39
[16] = Human rhinovirus sp., HRV78, H1-HeLa, HRV-78
[17] = H1-HeLa cells, mock-infected, HRV-14
[18] = Rhinovirus B, HRV14, H1-HeLa, HRV-14, read-out: EC50
[19] = CVB3, H1-HeLa cells, read-out: EC50
[20] = mock-infected (uninfected) H1-HeLa cells, CAV-21
[21] = mock-infected (uninfected) H1-HeLa cells

Structure (SMILES)	EC50 (HRV-14; Rhinovirus B, HRV14, H1-HeLa) [nM]	EC50 [1, 9] [nM]	EC50 [1, 10] [nM]	EC50 [1, 12] [nM]	EC50 [1, 13] [nM]	EC50 [1, 15] [nM]	EC50 [1, 16] [nM]	CC50 (H1-HeLa cells; HRV-3) [nM]	CC50 (H1-HeLa cells; HRV-9) [nM]	CC50 (H1-HeLa cells; HRV-13) [nM]	CC50 (H1-HeLa cells; HRV-16) [nM]	CC50 (H1-HeLa cells; HRV-39) [nM]	CC50 (H1-HeLa cells; HRV-78) [nM]	CC50 at 2 days [2, 17] [nM]	kinact/KI [3] [M⁻¹ s⁻¹]	also measured
Cc1cc(C(=O)Nc2cccn([C@@H](Cc3ccc(F)c(F)c3)C(=O)N[C@H](/C=C/C(=O)OC3CCC3)C[C@@H]3CCNC3=O)c2=O)no1 [Compound 58, trans-(2′S,3″″″S,4S)-4-[3′-(3″,4″-Difluorophenyl)-2′-(3′″-{[1″″-(5′″″-methylisoxazol-3′″″-yl)methanoyl]amino}-2″″-oxo-2″″H-pyridin-1″″-yl)propanoylamino]-5-(2″″″-oxopyrrolidin-3″″″-yl)pent-2-enoic Acid Cyclobutyl Ester]	3	5	47	24	14	20	14	> 10000	> 10000	> 10000	> 10000	> 10000	> 10000	> 10000	2.2e+06	EC50 ([1]; H1-HeLa, HRV-1A): 14 nM; EC50 ([1]; H1-HeLa, HRV-2): 13 nM; EC50 ([1]; H1-HeLa, HRV-23): 8 nM; EC50 ([1]; Human rhinovirus sp., H1-HeLa, HRV-Hanks): 21 nM; EC50 [1, 11]: 11 nM; EC50 ([1]; Human rhinovirus sp., HRV11, H1-HeLa, HRV-11): 5 nM; EC50 ([1]; Human rhinovirus sp., HRV19, H1-HeLa, HRV-19): 17 nM; EC50 [1, 14]: 16 nM; CC50 (H1-HeLa cells; HRV-1A): > 10000 nM; CC50 (H1-HeLa cells; HRV-2): > 10000 nM; CC50 (H1-HeLa cells; HRV-10): > 10000 nM; CC50 (H1-HeLa cells; HRV-11): > 10000 nM; CC50 (H1-HeLa cells; HRV-19): > 10000 nM; CC50 (H1-HeLa cells; HRV-23): > 10000 nM; CC50 (H1-HeLa cells; HRV-25): > 10000 nM; CC50 (H1-HeLa cells; HRV-Hanks): > 10000 nM
CC[C@@H](C(=O)N[C@H](/C=C/C(=O)OC1CCCCC1)C[C@@H]1CCNC1=O)n1cccc(NC(=O)c2cc(C)on2)c1=O [Compound 60, trans-(2′S,3′″″S,4S)-4-[2′-(3″-{[1′″-(5″″-Methylisoxazol-3″″-yl)methanoyl]amino}-2′″oxo-2′″H-pyridin-1′″-yl)butanoylamino]-5-(2′″″-oxopyrrolidin-3′″″-yl)pent-2-enoic Acid Cyclohexyl Ester]	173	–	516	–	–	–	–	–	> 10000	–	–	–	–	> 10000	23000	EC50 ([1]; H1-HeLa, HRV-1A): 558 nM; EC50 [1, 11]: 368 nM; EC50 [1, 14]: 251 nM; CC50 (H1-HeLa cells; HRV-1A): > 10000 nM; CC50 (H1-HeLa cells; HRV-10): > 10000 nM; CC50 (H1-HeLa cells; HRV-25): > 10000 nM
Cc1cc(C(=O)Nc2cccn([C@@H](Cc3ccccc3)C(=O)N[C@H](/C=C/C(=O)OC(C)C)C[C@@H]3CCNC3=O)c2=O)no1 [Compound 66, trans-(2′S,3′″″S,4S)-4-[2′-(3″-{[1′″-(5″″-Methylisoxazol-3″″-yl)methanoyl]amino}-2′″-oxo-2′″H-pyridin-1′″-yl)-3″-phenylpropanoylamino]-5-(2′″″-oxopyrrolidin-3′″″-yl)pent-2-enoic Acid Isopropyl Ester]	155	56	196	57	11	22	15	> 10000	> 10000	> 10000	> 10000	> 10000	> 10000	> 10000	480000	–
Cc1cc(C(=O)Nc2cccn([C@@H](Cc3ccc(F)cc3)C(=O)N[C@H](/C=C/C(=O)OC(C)C)C[C@@H]3CCNC3=O)c2=O)no1 [Compound 67, trans-(2′S,3″″″S)-4-[3′-(4″-Fluorophenyl)-2′-(3′″-{[1″″-(5′″″-methylisoxazol-3′″″-yl)methanoyl]amino}-2″″-oxo-2″″H-pyridin-1″″-yl)propanoylamino]-5-(2″″″-oxopyrrolidin-3″″″-yl)pent-2-enoic Acid Isopropyl Ester]	57	19	162	162	33	38	48	> 10000	> 10000	> 10000	> 10000	> 10000	> 10000	> 10000	462000	–
CCOC(=O)c1ccc(OCCC2CCN(c3ccc(C)nn3)CC2)cc1 [Pirodavir, reference compound]	–	–	–	–	–	–	–	–	–	–	–	–	–	> 10000	–	EC50 ([4]; Coxsackievirus, CAV-21, H1-HeLa cells, read-out: EC50): > 100000 nM; CC50 (MRC-5 cells): > 10000 nM; CC50 at 4 days [5]: > 10000 nM; EC50 [6]: 60 nM; EC50 (HRV-14; [18]): 30 nM; EC50 [7, 19]: > 100000 nM; CC50 at 2 days [2, 20]: > 100000 nM; CC50 at 1 day [2, 21]: > 100000 nM; EC50 ([8]; ECHO-11 (also printed EV-11), MRC-5 cells, read-out: EC50): 3700 nM
Cc1cc(CCCOc2c(C)cc(-c3noc(C(F)(F)F)n3)cc2C)on1 [Pleconaril, reference compound]	–	–	–	–	–	–	–	–	–	–	–	–	–	> 10000	–	EC50 ([4]; Coxsackievirus, H1-HeLa): 90 nM; CC50 at 4 days [5]: > 10000 nM; EC50 (HRV-14; [18]): 10 nM; EC50 ([7]; H1-HeLa): > 10000 nM; CC50 at 2 days [2, 20]: > 10000 nM; CC50 at 1 day [2, 21]: > 10000 nM; EC50 [8]: 160 nM
Cc1cc(CCCCCOc2c(Cl)cc(C3=NCCO3)cc2Cl)on1 [WIN 54954, reference compound]	–	–	–	–	–	–	–	–	–	–	–	–	–	–	–	EC50 ([4]; CAV-21, H1-HeLa cells, read-out: EC50): > 100000 nM; EC50 (HRV-14; HRV-14, read-out: EC50): 2130 nM; EC50 [7, 19]: > 100000 nM; CC50 (H1-HeLa cells; CAV-21): > 100000 nM; CC50 (H1-HeLa cells; CVB3): > 100000 nM; CC50 (H1-HeLa cells; HRV-14): > 63000 nM
